US6596771B2, “Drugs for treating viral infections” (priority 2001, dated 2003)
In brackets after ≈: the same amount, converted by molar mass. Where two headings read alike, the source gives them in different places.

Experiments:
[1] = test system: cowpox virus; format: cell-based
[2] = test system: cowpox virus; format: cell-based; remark: listed apart in the source
[3] = test system: Vaccinia Virus; format: cell-based
[4] = test system: HFF cells
[5] = test system: Vaccinia Virus; format: cell-based; remark: listed apart in the source
[6] = test system: stationary HFF cells; experiment: Neutral Red Uptake Assay (toxicity); format: cell-based, human
[7] = test system: cowpox; design: species or system female BALB/c mice; settings: mouse, in vivo

| Compound | EC50 [1] [microgram/mL] | concentration at which active in these cells [2] | EC50 [3] [microgram/mL] | CC50 [4] [microgram/mL] | EC90 [3] [microgram/mL] | EC90 [5] [µg/mL] | EC90 [1] [microgram/mL] | CC50 [6] [microgram/mL] | Lung titer on Day 3 [7] |
| --- | --- | --- | --- | --- | --- | --- | --- | --- | --- |
| Nc1ccn(C[C@@H](CO)OCP(=O)(O)O)c(=O)n1 [CDV, reference compound] | 2.30 | about 12.0 microgram microgram/mL | 1.80 | – | – | – | – | – | – |
| O=S(=O)(NC12CC3CC(CC(C3)C1)C2)NS(=O)(=O)NC12CC3CC(CC(C3)C1)C2 [Example 1, N,N^1-Bis(tricyclo[3.3.1.1^3,7]dec-1-yl)imidodisulfamide] | – | – | – | 77.80 | 1.40 | 0.15 (≈ 0.338 µM) | – | – | – |
| O=S(=O)([N-]S(=O)(=O)NC12CC3CC(CC(C3)C1)C2)NC12CC3CC(CC(C3)C1)C2.[Na+] [Example 11] | 0.50 | – | 0.04 | – | 0.11 | – | 2.10 | 87.6 | 6.6±1.3 |
